Experimental data as given in publication PMC5618418, “Pharmacokinetics of Jaspine B and Enhancement of Intestinal Absorption of Jaspine B in the Presence of Bile Acid in Rats” (Marine Drugs, 2017).
Where two headings read alike, the source gives them in different places.

Legend:
[1] = Pharmacokinetics after intravenous injection (plasma, bile, urine); assay type: in vivo, rat; settings: for half-life: iv, 10 mg/kg
Protocol: Male SD rats (aged 8–9 weeks, weighing 250–300 g) were obtained from Samtako Bio Korea, Inc. (Osan, Korea). The rats were acclimatized for 1 week in a temperature-controlled room (23 ± 2 °C) with a 12-h illumination cycle. Food and water were given ad libitum. All animal procedures were approved by the Animal Care and Use Committee of the Kyungpook National University (No. 2015-0064). The rats were fasted for at least 12 h before the oral administration of drugs.
The femoral artery, femoral vein, and bile duct were cannulated with polyethylene tubes (PE-50 and PE-10; Jungdo, Seoul, Korea) under light anesthesia with isoflurane.
For intravenous (IV) dosing, Jaspine B was dissolved in a vehicle containing DMSO: PEG400: saline (2:4:4, v/v/v) and was IV-injected via the femoral vein at 10 mg/kg (vehicle volume, 1 mL/kg). Blood samples were collected from the femoral artery at 0, 0.083, 0.167, 0.25, 0.5, 1, 2, 4, 6, 8, and 12 h following the IV administration of Jaspine B. Bile and urine samples were collected every 2 h for a total of 12 h. After centrifugation of blood samples at 13,200 rpm for 10 min, aliquots of 50 μL of plasma, bile, and urine were stored at −80 °C until the analysis of Jaspine B.
Aliquots (50 μL) of plasma, bile, feces homogenates, and urine samples were added to 250 μL of acetonitrile containing 0.5 ng/mL of berberine (an internal standard). After vortexing for 10 min and centrifugation at 13,200 rpm for 5 min, an aliquot (2 μL) of the supernatant was injected directly into the LC-MS/MS system. For the analysis of plasma concentration, the standard curve range was 25–5000 ng/mL and the concentrations of quality control (QC) samples were 75, 500, and 3000 ng/mL, as described previously. Concentrations of Jaspine B in urine, bile, and feces homogenates were 5–300 ng/mL, 20–5000 ng/mL, and 20–5000 ng/mL, respectively. The concentrations of QC samples were 15, 100, and 300 ng/mL for urine samples and 75, 500, and 3000 ng/mL for bile and feces homogenates.
Pharmacokinetic parameters were determined using a non-compartmental analysis (WinNonlin® 2.0; Pharsight, Mountain View, CA, USA). Maximum plasma concentration (Cmax) and time to reach Cmax (Tmax) values were obtained from plasma concentration-time curves. The area under the plasma concentration–time curve from zero to infinity (AUC) was calculated using the trapezoidal-extrapolation method. For extrapolation, the area from the last data point to infinity was estimated by dividing the […].
Total systemic clearance (CLtotal) was calculated by dividing IV dose by plasma AUC and the apparent volume of distribution at steady-state (Vss) was calculated by multiplying mean residence time (MRT) by CLtotal.

HepG2 = test system: HepG2; parameters: method as in doi:10.5352/JLS.2016.26.12.1392; settings: HepG2 hepatoma; cited from earlier work
[2] = Metabolic stability in rat liver microsomes; assay type: in vitro ADME; settings: for percentage remaining: 37 °C
Protocol: Jaspine B (1 μM) was reconstituted in 100 mM potassium phosphate buffer (pH 7.4) containing 0.25 mg of RLMs and was pre-incubated for 5 min at 37 °C. The reaction was initiated by adding an NADPH-generating system (1.3 mM β-NADP, 3.3 mM glucose-6-phosphate, 3.3 mM MgCl2, and 1.0 unit/mL glucose-6-phosphate dehydrogenase) and then incubated (final volume 100 μL) for 0, 15, 30, and 60 min at 37 °C in a shaking water bath. The reaction was stopped by placing the incubation tubes on ice and adding 200 μL of ice-cold acetonitrile containing 0.5 ng/mL of berberine. After vortexing for 10 min and centrifugation at 13,200 rpm for 5 min, 2 μL of the supernatant was injected directly into the LC-MS/MS system.

786-O = test system: 786-O; parameters: method as in doi:10.5352/JLS.2016.26.12.1392; settings: 786-O renal carcinoma; cited from earlier work
MDA-MB-435 = test system: MDA-MB-435; parameters: method as in doi:10.5352/JLS.2016.26.12.1392; settings: MDA-MB-435 melanoma; cited from earlier work
[3] = male, Sprague-Dawley, rat plasma, IV 10 mg/kg

clearance ([1]; male, Sprague-Dawley, plasma, rat, IV 10 mg/kg, read-out: CLtotal): 98.3 ± 7.7 mL/min/kg
Vd ([1]; male, Sprague-Dawley, plasma, rat, IV 10 mg/kg, read-out: Vss): 21.2 ± 2.6 L/kg
half-life ([1]; male, Sprague-Dawley, rat, plasma, rat plasma, distribution phase, read-out: distribution half-life (converted)): 1.4 h
half-life ([1]; male, Sprague-Dawley, rat, plasma, rat plasma, read-out: T1/2 (terminal half-life) (converted)): 6.7 ± 1.6 h
AUC(0-inf) [1, 3]: 1700 ± 137 ng·h/mL
MRT [1, 3]: 3.6 ± 0.5 h
AUC(0-t) ([1]; male, Sprague-Dawley, rat plasma, IV 10 mg/kg, read-out: AUC12h): 1290 ± 166 ng·h/mL
Xbile ([1]; rat bile, IV 10 mg/kg, 0-12 h): 2.4 ± 0.8 % of dose
Xurine ([1]; rat urine, IV 10 mg/kg, 0-12 h): 0.4 ± 0.2 % of dose
CLbile ([1]; rat, IV 10 mg/kg): 3.1 ± 0.6 mL/min/kg
CLurine ([1]; rat, IV 10 mg/kg): 0.5 ± 0.3 mL/min/kg
contribution of CLbile and CLurine to CLtotal ([1]; rat, IV 10 mg/kg): about 4%
percentage remaining ([2]; 1 μM, rat liver microsomes, NADPH-generating system, 30 min): 59.8%
percentage remaining ([2]; 1 μM, rat liver microsomes, NADPH-generating system, 60 min): 20.4%
degraded ([2]; 1 h incubation with rat liver microsomes): 80%
half-life at 1 μM ([2]; pH 7.4, 1 μM, rat liver microsomes, NADPH-generating system, read-out: degradation half-life (T1/2)): 0.4 h
SMILES: CCCCCCCCCCCCCC[C@@H]1OC[C@H](N)[C@@H]1O [Jaspine B]
IC50 (HepG2): 5.69 µM
IC50 (786-O): 29.4 µM
IC50 (MDA-MB-435): 2.6 µM
